Test results taken from patent US11396512B2, “CDK2/4/6 inhibitors” (Pfizer Inc., priority 2016, dated 2022).
pKi: −log10 of the molar value.

Key:
[1] = biological target: CDK6/Cyclin D1 (Homo sapiens (Human), UniProt Q00534); experiment: biochemical
[2] = system: HCC1806 mouse tumor xenograft; experiment: HCC1806 tumor model (mouse xenograft); assay type: in vivo; conditions: NU/NU female mice, 30 mpk PO BID, 50 mpk PO BID and 75 mpk PO BID, 14 days
Experimental: Source: HCC1806 (#CRL 2335, ATCC, Manassas, Va.)
The HCC1806 tumor cell line was cultured in RPM11640 media supplemented with 10% Fetal Bovine Serum (FBS). To establish a HCC1806 xenograft model, 5×10^6 cells per mouse were implanted subcutaneously into right hind flank NU/NU female mice. Cells were suspended in 50% Cultrex Basement Membrane Extract and 50% RPMI 1640 media serum free media prior to implantation.
Animals were randomized 7 days after cells implantation with each group consisting of 13 mice. Treatment began when tumors reached 100 mm^3 to 170 mm^3 in size on Day 7. Test compounds were prepared in 0.1% Tween, 0.5% Methyl cellulose in water and dosed PO at 30, 50, and 75 mg/kg as a suspension BID for 14 days. Mice receiving no drugs were given vehicle BID for 14 days. Tumor volumes were measured twice a week with an electric caliper, with tumor volumes calculated using Length×Width×Width/2 formula. Animal weights were recorded twice weekly.

Sequence of CDK6/Cyclin D1 (Q00534 whole entry): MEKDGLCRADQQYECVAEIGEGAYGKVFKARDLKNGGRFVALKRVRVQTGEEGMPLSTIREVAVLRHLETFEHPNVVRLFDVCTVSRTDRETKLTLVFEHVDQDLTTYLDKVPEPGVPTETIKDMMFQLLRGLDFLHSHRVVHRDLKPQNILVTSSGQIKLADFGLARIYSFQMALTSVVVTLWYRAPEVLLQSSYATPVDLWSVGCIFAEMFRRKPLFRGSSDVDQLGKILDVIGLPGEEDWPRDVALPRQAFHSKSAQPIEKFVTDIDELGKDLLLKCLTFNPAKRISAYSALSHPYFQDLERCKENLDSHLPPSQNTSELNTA
Sequence of CDK6/Cyclin D1 (P24385 whole entry partner): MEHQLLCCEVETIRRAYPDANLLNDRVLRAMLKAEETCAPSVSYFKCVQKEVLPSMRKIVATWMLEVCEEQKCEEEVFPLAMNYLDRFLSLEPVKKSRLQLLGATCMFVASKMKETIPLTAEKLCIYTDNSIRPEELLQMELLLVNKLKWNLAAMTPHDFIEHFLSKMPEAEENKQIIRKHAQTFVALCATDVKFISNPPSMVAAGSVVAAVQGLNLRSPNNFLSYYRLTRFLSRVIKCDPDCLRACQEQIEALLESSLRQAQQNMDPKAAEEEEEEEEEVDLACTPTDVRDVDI

`C[C@]1(O)CCCC1n1c(=O)ccc2cnc(NC3CCN(S(=O)(=O)C(F)(F)F)CC3)nc21` (single isomer, unassigned) [Example 89] was tested, and the pKi [1] was 7.95.
With `C[C@@]1(O)CCC[C@H]1n1c(=O)ccc2cnc(NC3CCN(S(C)(=O)=O)CC3)nc21` [Example 2, 8-[(1R,2R)-2-hydroxy-2-methylcyclopentyl]-2-{[1-(methylsulfonyl)piperidin-4-yl]amino}pyrido[2,3-d]pyrimidin-7(8H)-one] the “inhibition of tumor growth (mm^3)” value [2] was “dose dependent inhibition of tumor growth”.
